In publication PMC3632557, “Histatin 5 Resistance of Candida glabrata Can Be Reversed by Insertion of Candida albicans Polyamine Transporter-Encoding Genes DUR3 and DUR31” (PLoS ONE, 2013):

How the values were obtained:
C. albicans CAI4 [1] = assay: Spermidine uptake rate; assay type: cell-based, Candida albicans; details: method as in earlier work
Source text: (§1) Next, we investigated the role of altered Hst 5 uptake mechanisms between C. albicans and C. glabrata as a probable reason for their differential susceptibilities to Hst 5. C. albicans contains six DUR transporter family members that are responsible for polyamine (spermidine, spermine, and putrescine) uptake. […] C. glabrata CAGL0K03157g product has 54% identity and 71% similarity with C. albicans DUR3 (orf19.781); and C. glabrata CAGL0108613g product has 51% identity and 69% similarity with C. albicans DUR31 (orf19.6656). However, C. glabrata CAGL0K03157g (CaDUR3 homologue) gene product has even higher homology with S. cerevisiae DUR3, having 65% identity and 76% similarity. The in silico predicted function of these C. glabrata proteins is transmembrane transport; however their specific functions remain uncharacterized. […] There were no significant differences in rates of spermidine uptake among the three strains of C. glabrata (0.163±0.015 nanomoles/10^6 cells/min) compared to C. albicans (0.160±0.014 nanomoles/10^6 cells/min); thus showing polyamine transporter activity is equivalent between C. albicans and C. glabrata strains in respect to spermidine.

[2] = system: C. glabrata Cg10, Cg30, Cg32; assay: Spermidine uptake rate; assay type: cell-based, Candida glabrata; details: three strains of C. glabrata; method as in earlier work
Source text: as §1

C. albicans CAI4 [3] = assay: Candidacidal assay (microdilution plate); assay type: cell-based, Candida albicans; details: 31 µM Hst 5; 1×10^6 cells, 10 mM NaPB pH 7.2, 30°C, 30 min, colony counts after 48 h; n = 4
Method: (§2) Candidacidal assays were performed using microdilution plate assays. Briefly, single colonies of C. albicans CAI4, C. glabrata Cg10, Cg30, Cg32, and BG14 strains were inoculated in YPD media; Cg BG14-CaDUR3, Cg BG14-CaDUR31, and Cg BG14-Empty vector were inoculated in YNB media without uridine and grown overnight (A600 = 1.6–1.8). Cells were washed twice with 10 mM sodium phosphate buffer (NaPB) (pH 7.2) and cells (1×10^6) were incubated at 30°C for 30 min with different concentrations of Hst 5. Aliquots of 500 cells were spread onto YPD (WT strains) or YNB - uridine (C. glabrata expressing C. albicans DUR genes) agar plates and incubated for 48 h to visualize surviving colonies. Blocking experiments were performed using cells pre-incubated with β-1,3-glucan monoclonal antibody (Biosupplies) at room temperature for 30 min. All killing assays were performed in triplicate and repeated at least thrice. Percent cell killing was calculated as 1−(number of colonies from suspensions with Hst 5/numbers of colonies from control suspensions)×100.

C. albicans CAI4 biofilm = assay: Confocal microscopy of F-Hst 5 in 24 h biofilms; assay type: cell-based, Candida albicans; details: FITC-labeled Hst 5 31.5 µM, 24 h biofilm
Method: (§3) CAI4, Cg10, Cg30, Cg32, BG14, Cg BG14-CaDUR3, Cg BG14-CaDUR31, and Cg BG14-Empty vector were treated with fluorescein isothiocyanate FITC-labeled Hst 5 (F-Hst 5, synthesized by Genemed Synthesis, Inc.) to observe relative binding and uptake of salivary Hst 5 as described previously. […] Cells grown overnight (A600 = 0.8–1.0) were diluted to obtain 10^6 cells/ml in NaPB. Chambered cover glass slides (Lab-TekII) were coated with concanavalin A (100 µg/ml) for 30 min and washed twice with water. Cells (1×10^6) were fixed on concanavalin A-coated slides for 30 min at room temperature. The plates were then washed twice with 10 mM NaPB followed by addition of 31 µM FITC-Hst 5. Images were captured using a Zeiss LSM 510 Meta Confocal Microscope and Plan Apochromat 63/1.4 (oil) objective. The average fluorescence intensity was calculated using ImageJ software. Confocal images of cells were compared to determine the relative binding and uptake of Hst 5. Hst 5 binding to Candida biofilms was analyzed using confocal microscopy on biofilms of CAI4 and Cg30 strains. Biofilms were formed by addition of 500 µl cells (cultured overnight in YPD at 28°C, then washed and diluted to OD600 = 1.0 in PBS) to each well of culture dishes (MatTek, MA) and incubated at 37°C for 3 h. Non-adherent cells were removed by gentle washing and 500 µl media was added to each well. The dishes were then incubated at 37°C for 24 h to allow biofilm formation. F-Hst 5 (31.5 µM) was added to each well. Biofilms were measured using a series of horizontal (x–y) optical sections with a thickness of 0.38 µm taken throughout the full length of the biofilm. Z-stack images and thickness measurements of biofilms were obtained using AxioVision 4.4 software (Carl Zeiss LSM Micro Imaging). […] The total number of F-Hst 5 labeled cells was quantified in CAI4 and Cg30 biofilms manually from three independent stacks originating at the Bottom (2–3 µm), Middle (6–8 µm) or Top (12–16 µm) regions of the biofilm. Values were plotted using Graphpad Prism 5 software.

Cg BG14-CaDUR31 = assay: Candidacidal assay (microdilution plate); assay type: cell-based, Candida glabrata; details: Hst 5 60 µM; 10 mM NaPB pH 7.2, 30°C, 30 min, colony counts; n = 3
Method: as §2

Cg BG14-CaDUR3 = assay: Candidacidal assay (microdilution plate); assay type: cell-based, Candida glabrata; details: Hst 5 60 µM; 10 mM NaPB pH 7.2, 30°C, 30 min, colony counts; n = 3
Method: as §2

[4] = system: C. glabrata Cg 931010 (Cg10); assay: Candidacidal assay (microdilution plate); assay type: cell-based, Candida glabrata; details: 31 µM Hst 5; 1×10^6 cells, 10 mM NaPB pH 7.2, 30°C, 30 min, colony counts; n = 4
Method: as §2

[5] = system: C. glabrata Cg 90030 (Cg30); assay: Candidacidal assay (microdilution plate); assay type: cell-based, Candida glabrata; details: Hst 5 up to 31 µM; 10 mM NaPB pH 7.2, 30°C, 30 min, colony counts; n = 4
Method: as §2

[6] = system: C. glabrata Cg 90032 (Cg32); assay: Candidacidal assay (microdilution plate); assay type: cell-based, Candida glabrata; details: Hst 5 up to 31 µM; 10 mM NaPB pH 7.2, 30°C, 30 min, colony counts; n = 4
Method: as §2

[7] = system: C. glabrata BG14 cells not expressing C. albicans DUR genes; assay: Candidacidal assay (microdilution plate); assay type: cell-based, Candida glabrata; details: Hst 5 60 µM; 10 mM NaPB pH 7.2, 30°C, 30 min, colony counts; n = 3
Method: as §2

C. glabrata Cg30 biofilm = assay: Confocal microscopy of F-Hst 5 in 24 h biofilms; assay type: cell-based, Candida glabrata; details: FITC-labeled Hst 5 31.5 µM, 24 h biofilm
Method: as §3, with “Confocal images of cells were compared to determine the relative binding and uptake of Hst 5.” left out, “Biofilms were formed by addition of 500 µl cells (cultured overnight in YPD at 28°C, then washed and diluted to OD600 = 1.0 in PBS) to each well of culture dishes (MatTek, MA) and incubated at 37°C for 3 h. Non-adherent cells were removed by gentle washing and 500 µl media was added to each well. The dishes were then incubated at 37°C for 24 h to allow biofilm formation. F-Hst 5 (31.5 µM) was added to each well.” left out, “biofilm.” for “biofilm. Z-stack images and thickness measurements of biofilms were obtained using AxioVision 4.4 software (Carl Zeiss LSM Micro Imaging).”, “Values were plotted using Graphpad Prism 5 software.” left out

[8] = system: C. glabrata strains (ATCC 90030, 2001 and 64677); details: strains completely insensitive even at high concentrations; ref [10]; cited from earlier work
Source text: Histatins are basic histidine-rich proteins secreted in human parotid and submandibular-sublingual saliva in humans and higher primates. Histatin 5 (Hst 5) is a proteolytic cleavage product of the larger Histatin 3 family member, [6]. […] However, ma ...

| Compound | rate of spermidine uptake (C. albicans CAI4 [1]) [nanomoles/10^6 cells/min] | rate of spermidine uptake [2] [nanomoles/10^6 cells/min] | cell death (killing) (C. albicans CAI4 [3]) [%] | Hst 5 containing cells, total biofilm (C. albicans CAI4 biofilm) [%] | percentage of Hst 5 containing cells, bottom regions (C. albicans CAI4 biofilm) | percentage of Hst 5 positive cells, middle regions (8 µm) (C. albicans CAI4 biofilm) [%] | killing (Cg BG14-CaDUR31) [%] | killing (Cg BG14-CaDUR3) [%] | killing [4] [%] | maximal killing [5] [%] | maximal killing [6] [%] | killing [7] [%] | Hst 5 containing cells, total biofilm (C. glabrata Cg30 biofilm) [%] | percentage of Hst 5-labeled cells, bottom regions (2.5 µm) (C. glabrata Cg30 biofilm) [%] | IC50 [8] [µg/mL] |
| --- | --- | --- | --- | --- | --- | --- | --- | --- | --- | --- | --- | --- | --- | --- | --- |
| NCCCCNCCCN [spermidine] | 0.160±0.014 | 0.163±0.015 |  |  |  |  |  |  |  |  |  |  |  |  |  |
| Histatin 5 [Hst 5] |  |  | 65 | 28 | ≈ 25% | 33 | 55 | 43 | 22 | 8 | 10 | 25 | 17 | 20 | > 225 |
